Source: the supplement of paper PMC6045584
± gives the standard deviation of the averaged measurements.

Experiments:
PACLITAXEL = compound: CC(=O)O[C@H]1C(=O)[C@@]2(C)[C@H]([C@H](OC(=O)c3ccccc3)[C@]3(O)C[C@H](OC(=O)[C@H](O)[C@@H](NC(=O)c4ccccc4)c4ccccc4)C(C)=C1C3(C)C)[C@]1(OC(C)=O)CO[C@@H]1C[C@@H]2O [PACLITAXEL]; experiment: surviving fraction relative to DMSO-only wells; higher = less growth inhibition; conditions: exposure time: 5 days
In short: (§1)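 Each tumour cell line was screened three times, and only lines with replicate Pearson r >0.7 and median Z' >0.3 were kept. Cells in log phase were seeded at 250–500 per well in 384-well plates, left 24 hours, then exposed continuously for five days to inhibitors at 0.5, 1, 5, 10, 50, 100, 500 and 1000 nM. Viability was read as CellTiter-Glo luminescence, with surviving fraction normalised to the median of DMSO-only wells.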

CARBOPLATIN = compound: O=C(O)C1(C(=O)O)CCC1.[NH2-].[NH2-].[Pt+2] [CARBOPLATIN]; experiment: as above; conditions: exposure time: 5 days
In short: as §1

Row | Test System | surviving fraction (PACLITAXEL; 0.5 nM) | surviving fraction (PACLITAXEL; 1 nM) | surviving fraction (PACLITAXEL; 5 nM) | surviving fraction (PACLITAXEL; 10 nM) | surviving fraction (PACLITAXEL; 50 nM) | surviving fraction (PACLITAXEL; 100 nM) | surviving fraction (PACLITAXEL; 500 nM) | surviving fraction (PACLITAXEL; 1000 nM) | surviving fraction (CARBOPLATIN; 0.5 nM) | surviving fraction (CARBOPLATIN; 1 nM) | surviving fraction (CARBOPLATIN; 5 nM) | surviving fraction (CARBOPLATIN; 10 nM) | surviving fraction (CARBOPLATIN; 50 nM) | surviving fraction (CARBOPLATIN; 100 nM) | surviving fraction (CARBOPLATIN; 500 nM) | surviving fraction (CARBOPLATIN; 1000 nM)
1 | SCC90 HEADNECK | 0.919 ± 0.038 | 0.95 ± 0.12 | 0.429 ± 0.057 | 0.294 ± 0.063 | 0.119 ± 0.024 | 0.0713 ± 0.011 | 0.07 ± 0.012 | 0.0663 ± 0.01 | 1.02 ± 0.023 | 1.04 ± 0.034 | 1.12 ± 0.18 | 1.11 ± 0.034 | 1.2 ± 0.07 | 1.15 ± 0.012 | 1.14 ± 0.098 | 1.16 ± 0.12
2 | SG27 HEADNECK | 0.88 ± 0.066 | 0.899 ± 0.062 | 0.937 ± 0.032 | 0.935 ± 0.056 | 0.888 ± 0.1 | 0.911 ± 0.097 | 1.01 ± 0.04 | 0.849 ± 0.068 | 1.13 ± 0.014 | 1.05 ± 0.017 | 1.12 ± 0.1 | 1.04 ± 0.038 | 1.18 ± 0.12 | 1.02 ± 0.13 | 1.14 ± 0.27 | 1.03 ± 0.11
3 | SG28 HEADNECK | 1.05 ± 0.086 | 0.903 ± 0.13 | 0.645 ± 0.033 | 0.635 ± 0.051 | 0.463 ± 0.072 | 0.505 ± 0.0085 | 0.458 ± 0.02 | 0.487 ± 0.043 | 1.23 ± 0.042 | 1.1 | 1.07 ± 0.065 | 0.97 ± 0.0014 | 1.024 ± 0.0035 | 1 ± 0.084 | 1.11 ± 0.034 | 1.18 ± 0.19
4 | SG31 HEADNECK | 0.976 ± 0.12 | 0.887 ± 0.06 | 0.455 ± 0.029 | 0.381 ± 0.036 | 0.271 ± 0.037 | 0.252 ± 0.033 | 0.267 ± 0.045 | 0.273 ± 0.028 | 1.15 ± 0.14 | 1.21 ± 0.11 | 0.963 ± 0.12 | 1.12 ± 0.24 | 1.16 ± 0.1 | 1.06 ± 0.19 | 1.17 ± 0.083 | 1.21 ± 0.14
5 | SG32 HEADNECK | 0.906 ± 0.26 | 0.603 ± 0.093 | 0.275 ± 0.032 | 0.259 ± 0.015 | 0.281 ± 0.062 | 0.275 ± 0.02 | 0.244 ± 0.02 | 0.218 ± 0.021 | 1.12 ± 0.12 | 1.07 ± 0.17 | 1.15 ± 0.17 | 1.17 ± 0.051 | 1.27 ± 0.12 | 1.38 ± 0.35 | 1.16 ± 0.2 | 1.04 ± 0.17
6 | SG43 HEADNECK | 0.793 ± 0.2 | 0.849 ± 0.078 | 0.588 ± 0.022 | 0.619 ± 0.067 | 0.471 ± 0.0079 | 0.467 ± 0.091 | 0.477 ± 0.07 | 0.433 ± 0.038 | 1.14 ± 0.14 | 1.13 ± 0.3 | 0.915 ± 0.18 | 1.15 ± 0.23 | 0.826 ± 0.071 | 0.996 ± 0.19 | 0.994 ± 0.16 | 1.07 ± 0.14
7 | SIHA CERVIX | 0.988 ± 0.031 | 0.948 ± 0.04 | 0.238 ± 0.029 | 0.136 ± 0.014 | 0.0897 ± 0.0031 | 0.0817 ± 0.004 | 0.101 ± 0.0087 | 0.0943 ± 0.014 | 1.14 ± 0.065 | 1.18 ± 0.038 | 1.13 ± 0.088 | 1.21 ± 0.094 | 1.16 ± 0.1 | 1.21 ± 0.044 | 1.08 ± 0.048 | 1.14 ± 0.02
8 | SKBR3 BREAST | 0.925 ± 0.13 | 0.413 ± 0.061 | 0.165 ± 0.0059 | 0.157 ± 0.02 | 0.135 ± 0.023 | 0.139 ± 0.013 | 0.123 ± 0.015 | 0.136 ± 0.028 | 1.01 ± 0.098 | 1.06 ± 0.1 | 1.06 ± 0.11 | 0.987 ± 0.2 | 1.08 ± 0.049 | 1.04 ± 0.073 | 1.07 ± 0.073 | 1.03 ± 0.14
9 | SNU475 LIVER | 0.8 ± 0.034 | 0.649 ± 0.026 | 0.282 ± 0.018 | 0.2 ± 0.023 | 0.142 ± 0.014 | 0.138 ± 0.0065 | 0.132 ± 0.029 | 0.137 ± 0.008 | 1.04 ± 0.088 | 1.06 ± 0.038 | 1.07 ± 0.041 | 1.05 ± 0.037 | 1.02 ± 0.075 | 1.05 ± 0.043 | 1.01 ± 0.04 | 1.04 ± 0.036
10 | SUM149 BREAST | 0.809 ± 0.053 | 0.452 ± 0.11 | 0.0573 ± 0.004 | 0.0463 ± 0.0085 | 0.0357 ± 0.00058 | 0.0373 ± 0.0038 | 0.0337 ± 0.006 | 0.0307 ± 0.0023 | 1.02 ± 0.019 | 1.04 ± 0.13 | 1.02 ± 0.049 | 0.943 ± 0.074 | 0.909 ± 0.06 | 0.905 ± 0.076 | 0.927 ± 0.057 | 0.927 ± 0.077
11 | SUM159 BREAST | 1.13 ± 0.24 | 1.1 ± 0.15 | 0.57 ± 0.024 | 0.179 ± 0.0045 | 0.12 ± 0.0095 | 0.107 ± 0.0015 | 0.124 ± 0.0017 | 0.137 ± 0.02 | 1.12 ± 0.024 | 1.1 ± 0.02 | 1.1 ± 0.016 | 1.09 ± 0.024 | 1.09 ± 0.022 | 1.09 ± 0.015 | 1.11 ± 0.022 | 1.092 ± 0.01
12 | SYO1 SYNOVIAL | 0.828 ± 0.041 | 0.592 ± 0.015 | 0.107 ± 0.0096 | 0.0752 ± 0.0059 | 0.056 ± 0.0057 | 0.0522 ± 0.0059 | 0.0456 ± 0.0087 | 0.048 ± 0.009 | 1.04 ± 0.028 | 0.986 ± 0.023 | 1.06 ± 0.027 | 0.9793 ± 0.0044 | 0.998 ± 0.019 | 1.01 ± 0.035 | 0.99 ± 0.065 | 0.972 ± 0.028
13 | T47D BREAST | 0.718 ± 0.018 | 0.579 ± 0.01 | 0.307 ± 0.0054 | 0.265 ± 0.027 | 0.226 ± 0.011 | 0.222 ± 0.022 | 0.214 ± 0.0067 | 0.226 ± 0.023 | 1.02 ± 0.049 | 1.04 ± 0.04 | 1.04 ± 0.083 | 1.01 ± 0.019 | 1.05 ± 0.013 | 1.05 ± 0.059 | 1.05 ± 0.028 | 1.03 ± 0.042
14 | U2OS BONE | 1 ± 0.037 | 0.985 ± 0.016 | 0.488 ± 0.011 | 0.271 ± 0.012 | 0.106 ± 0.0087 | 0.0817 ± 0.0093 | 0.0593 ± 0.0085 | 0.059 ± 0.001 | 1.04 ± 0.044 | 1.05 ± 0.046 | 1.07 ± 0.033 | 1.1 ± 0.028 | 1.1 ± 0.049 | 1.077 ± 0.0098 | 1.06 ± 0.016 | 1.05 ± 0.032
15 | YAMATO SYNOVIAL | 1.04 ± 0.16 | 0.891 ± 0.036 | 0.488 ± 0.069 | 0.464 ± 0.043 | 0.377 ± 0.012 | 0.359 ± 0.021 | 0.346 ± 0.0061 | 0.426 ± 0.016 | 1.17 ± 0.066 | 1.33 ± 0.069 | 1.34 ± 0.11 | 1.31 ± 0.051 | 1.34 ± 0.029 | 1.29 ± 0.11 | 1.248 ± 0.0092 | 1.29 ± 0.051
16 | ZR751 BREAST | 0.774 ± 0.1 | 0.628 ± 0.042 | 0.52 ± 0.087 | 0.461 ± 0.024 | 0.389 ± 0.042 | 0.437 ± 0.057 | 0.397 ± 0.021 | 0.449 ± 0.023 | 1.16 ± 0.2 | 1.23 ± 0.071 | 1.14 ± 0.13 | 1.18 ± 0.23 | 1.2 ± 0.099 | 1.18 ± 0.25 | 1.26 ± 0.15 | 1.24 ± 0.22
